{
  "source": "paper PMC11313193",
  "about": "“Which Constituents Determine the Antioxidant Activity and Cytotoxicity of Garlic? Role of Organosulfur Compounds and Phenolics” (International Journal of Molecular Sciences, 2024)",
  "key": {"[1]": {"system": "breast cancer MCF-7 cells", "set-up": "method as in PMID 32286702", "details": "24 h exposure; read-out: Concentration lowering viability of MCF-7 cells to 50%; cited from earlier work"}, "[2]": {"assay": "Ferric reducing antioxidant power (FRAP) assay", "details": "30 min at ambient temperature, pH 3.6, absorbance at 593 nm", "outline": "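Compounds were incubated 30 min at ambient temperature with FRAP reagent (0.3 M acetate buffer pH 3.6, TPTZ in HCl, FeCl3), and Fe2+-TPTZ absorbance was read at 593 nm. Activity was the ratio of the absorbance-vs-concentration slope to that of Trolox, expressed as mol Trolox equivalents per mol compound.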"}, "[3]": {"system": "cervical squamous carcinoma SiHa cells", "set-up": "method as in PMID 30783417", "details": "50 nM, 24 h exposure; cited from earlier work"}, "[4]": {"system": "microsomal lipid peroxidation", "set-up": "method as in PMID 16822206", "details": "cited from earlier work"}, "[5]": {"assay": "ABTS^● decolorization assay", "details": "30 min incubation at room temperature, absorbance at 734 nm"}, "[6]": {"system": "PEO1 ovarian cancer cells", "assay": "Cytotoxicity (Neutral Red), PEO1 cells", "type": "cell-based, human", "details": "24 h exposure", "outline": "(§1)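 Cells seeded 1 × 10^4 (SKOV-3, MRC-5) or 1.5 × 10^4 (PEO1) per well, grown 24 h, then exposed to compound for 24 h at 37 °C, 5% CO2 (≤0.02% DMSO); untreated cells as control. Viability by Neutral Red uptake (1 h), dye extracted with water/ethanol/acetic acid, absorbance at 540 nm against 620 nm.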"}, "[7]": {"system": "U87MG human glioblastoma cells", "set-up": "method as in PMID 22552443", "details": "24 h exposure, cited from earlier work"}, "[8]": {"system": "MDA-MB-231 breast cancer cells", "set-up": "method as in PMID 34626309", "details": "24 h exposure, cited from earlier work"}, "[9]": {"system": "U251 glioma cells", "set-up": "method as in PMID 29436625", "details": "24 h exposure, cited from earlier work"}, "[10]": {"assay": "DPPH^● decolorization assay", "details": "30 min at ambient temperature in the dark, absorbance at 517 nm", "outline": "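Increasing amounts of compound react with 0.3 mM DPPH radical in methanol for 30 min at ambient temperature in the dark, read at 517 nm.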"}, "[11]": {"system": "MCF-7 breast cancer cells", "set-up": "method as in PMID 34626309", "details": "24 h exposure, cited from earlier work"}, "[12]": {"system": "SKOV-3 cells", "set-up": "method as in PMID 25097657", "details": "24 h exposure, cited from earlier work"}, "[13]": {"system": "breast cancer HCC-70 cells", "set-up": "method as in PMID 32286702", "details": "24 h exposure; read-out: Concentration lowering viability of HCC-70 cells to 50%; cited from earlier work"}, "[14]": {"system": "gastric carcinoma AGS cells", "set-up": "method as in PMID 15911108", "details": "24 h exposure, cited from earlier work"}, "[15]": {"system": "MRC-5 fibroblasts", "assay": "Cytotoxicity (Neutral Red), MRC-5 fibroblasts", "type": "cell-based, human", "details": "24 h exposure", "outline": "as §1"}, "[16]": {"set-up": "method as in PMID 17312965", "details": "cited from earlier work"}, "[17]": {"system": "SGC7901 human gastric adenocarcinoma cells", "set-up": "method as in PMID 21042755", "details": "120 μg/mL (i.e., ca. 0.74 mM), 24 h exposure; cited from earlier work"}, "[18]": {"system": "SKOV-3 ovarian cancer cells", "assay": "Cytotoxicity (Neutral Red), SKOV-3 cells", "type": "cell-based, human", "details": "24 h exposure", "outline": "as §1"}, "[19]": {"details": "in the concentration range studied"}},
  "data": [
    {"compound": "C=CCS[S+]([O-])CC=C", "note": "(stereo not drawn) [Allicin, S-(prop-2-en-1-yl)prop-2-ene-1-sulfinothioate]", "values": [
      {"measurement": "IC50", "setting": "[1]", "value": "~15", "unit": "µM"},
      {"measurement": "Antioxidant activity, FRAP", "setting": "[2]", "value": "−0.0014 ± 0.0016 mol Trolox equivalents (TE)/mol compound"},
      {"measurement": "SiHa cell viability (decreased to)", "setting": "[3]", "value": "ca. 60%"},
      {"measurement": "Termination of lipid peroxidation / prevention of induced microsomal lipid peroxidation", "setting": "[4]", "value": "ineffective"},
      {"measurement": "Antioxidant activity, ABTS^● Decolorization", "setting": "[5]", "value": "−0.038 ± 0.020 mol Trolox equivalents (TE)/mol compound"},
      {"measurement": "IC50", "setting": "[6]; Homo sapiens, PEO1, Neutral Red, read-out: IC50 PEO1", "value": 282, "unit": "µM"},
      {"measurement": "Effect on viability of PEO1 cells", "setting": "[6]; [19]", "value": "did not significantly lower the viability"},
      {"measurement": "IC50", "setting": "[7]; converted, read-out: Concentration reducing viability of U87MG glioblastoma cells to 50%", "value": 550, "unit": "µM"},
      {"measurement": "Concentration reducing viability of U87MG glioblastoma cells to 50%", "setting": "[7]", "value": "ca. 90 /mL μg"},
      {"measurement": "IC50", "setting": "[8]; converted from μg/mL, read-out: Concentration lowering survival of MDA-MB-231 cells by 50%", "value": "~111", "unit": "µM"},
      {"measurement": "Concentration lowering survival of MDA-MB-231 cells by 50%", "setting": "[8]", "value": "about 18 μg/mL"},
      {"measurement": "IC50", "setting": "[9]; converted from μg/mL, read-out: Concentration reducing viability of U251 glioma cells to 50%", "value": 247, "unit": "µM"},
      {"measurement": "Concentration reducing viability of U251 glioma cells to 50%", "setting": "[9]", "value": "ca. 40 μg/mL"},
      {"measurement": "Antioxidant activity, DPPH^● Decolorization", "setting": "[10]", "value": "−0.023 ± 0.009 mol Trolox equivalents (TE)/mol compound"},
      {"measurement": "IC50", "setting": "[11]; converted from μg/mL, read-out: Concentration lowering survival of MCF-7 cells by 50%", "value": "~43", "unit": "µM"},
      {"measurement": "Concentration lowering survival of MCF-7 cells by 50%", "setting": "[11]", "value": "about 7 μg/mL"},
      {"measurement": "IC50", "setting": "[12]; converted from μg/mL, read-out: Concentration reducing viability of SKOV-3 cells to 50%", "value": "430 to 490", "unit": "µM"},
      {"measurement": "Concentration reducing viability of SKOV-3 cells to 50%", "setting": "[12]", "value": "70 to 80", "unit": "µg/mL"},
      {"measurement": "IC50", "setting": "[13]", "value": "~10", "unit": "µM"},
      {"measurement": "IC50", "setting": "[14]; converted from μg/mL, read-out: Concentration diminishing survival of AGS cells to ca. 50%", "value": "~62", "unit": "µM"},
      {"measurement": "Concentration diminishing survival of AGS cells to ca. 50%", "setting": "[14]", "value": 10, "unit": "µg/mL"},
      {"measurement": "Concentration at which viability of MRC-5 cells was lowered", "setting": "[15]; p < 0.05", "value": 100, "unit": "µM"},
      {"measurement": "IC50", "setting": "[15]; Homo sapiens, MRC5, Neutral Red, read-out: IC50 MRC-5", "value": 120, "unit": "µM"},
      {"measurement": "Reaction rate constant with cumene peroxyl radicals", "setting": "[16]", "value": 2600, "unit": "M⁻¹ s⁻¹"},
      {"measurement": "Decrease in the survival of SGC7901 cells", "setting": "[17]", "value": "ca. 25%"},
      {"measurement": "IC50", "setting": "[18]; Homo sapiens, SK-OV-3, Neutral Red, read-out: IC50 SKOV-3", "value": 236, "unit": "µM"},
      {"measurement": "Effect on viability of SKOV-3 cells", "setting": "[18]; [19]", "value": "did not significantly lower the viability"}
    ]}
  ]
}
